Entries after “also recorded” stand apart in the source; their conditions may differ.
Key:
[1] = test system: supF gene in lambda supF DNA; experiment: Targeted mutagenesis of supF gene in lambda supF DNA (in vitro packaging, plaques on E. coli); conditions: for supF mutations per 1000 phage: lambda DNA 3 nM; for supF mutation frequency: plus UVA 1.8 J/cm^2
Description: (§1) Targeted mutagenesis was achieved by incubating pso-AG10 with lambda supF DNA in vitro to form triplex at positions 167 to 176 of the supF gene and bring the tethered psoralen into proximity with the targeted base pair at position 167 as shown in Table 1. The numbers in the table represent the frequency of mutations seen in either the supF gene or the cI gene in the lambda supF genome following the indicated treatment. The lambda DNA at 3 nM was incubated with or without a 1000-fold molar excess of the indicated oligonucleotides (3 μM) as described in FIG. 2.
(§2) UVA (365 nm) irradiation of selected samples was performed at a dose of 1.8 J/cm^2. A radiometer was used to measure lamp output (typical UVA irradiance of 5–7 mW/cm^2 at 320–400 nm). The DNA was packaged in vitro into phage particles, using the method of Hohn, Methods in Enzymology 68:299–309 (1979), and the phage particles were adsorbed to E. coli and grown as individual plaques to allow genetic analyses of the supF and cI genes.
(§3) Photoactivation of the psoralen generated a DNA adduct, and in vitro packaging of the psoralen-AG10. The lambda supF DNA complex allowed growth of the phage in bacteria to fix the adduct into a mutation. The phage particles were grown as individual plaques on a bacterial lawn to detect targeted mutagenesis in the supF gene and to measure the extent of non-targeted mutagenesis by screening for the function of an unrelated gene, the lambda repressor (cI) gene. Mutations in these genes yield colorless plaques among blue ones and clear plaques among turbid ones, respectively.

[2] = test system: lambda repressor (cI) gene; experiment: Non-targeted mutagenesis of cI gene in lambda supF DNA; parameters: species or system lambda phage; conditions: for cI mutations per 1000 phage: lambda DNA 3 nM, oligonucleotide 3 μM, UVA 1.8 J/cm^2
Description: as §1, §2, §3

[3] = test system: supF gene of the lambda vector; experiment: Sequence analysis of supF mutants from lambda vector; parameters: species or system E. coli; conditions: plus UVA
From the text: FIGS. 2A and 2B show a sequence analysis of targeted mutagenesis in the supF gene by the psoralen-linked triplex-forming oligonucleotide (pso-AG10). In FIG. 2A, mutations produced by pso-AG10 and UVA are indicated above each base pair, with the listed base representing the change from the sequence in the top strand. […] The asterisk indicates the targeted base pair at position 167. DNA sequence data was obtained by automated methods after polymerase chain reaction amplification of the supF genes from lambda phage plaques in accordance with the method of Connell et al., Biotechniques 5:342 (1987). FIG. 2B is a compilation of mutations induced in supF by 8-methoxypsoralen and UVA in mouse L-cells using the lambda supF vector of FIG. 1 or generated using a plasmid shuttle vector in monkey Vero cells in accordance with the method of Bredberg and Nachmansson, Carcinogenesis 8:1923 (1987), to compare the mutations produced in supF by free psoralen with those produced by the triplex forming oligonucleotide AG10.
To obtain direct evidence for targeted mutagenesis, a series of independent mutants produced in the supF gene of the lambda vector by pso-AG10 and UVA were sequenced. […] The A:T base pair at 167 forms a triplet with the 5′ adenine to which the psoralen is tethered in AG10, and so it is the closest base pair to the psoralen. The overwhelming predominance of the T:A to A:T transversion at this site is consistent with the mutagenic action of psoralen, which tends to form adducts at pyrimidines, and especially at thymidines. It should be noted that these mutations are independent and none of the mutations represent siblings because each packaged lambda particle gives rise to a single, separate lambda plaque on the bacterial lawn.

[4] = test system: supF gene within the SV40 vector pSP189; experiment: Hinf I restriction enzyme protection assay, SV40 vector DNA target; type: binding; conditions: vector 50 nM
Description: The binding and irradiation were carried out as described above, except that pSP189 was used as the supF target at a concentration of 50 nM and psoralen-AG10 was added at ratios of oligomer to vector of from 1:1 to 1000:1. Irradiation and gel conditions were as described above.
Similar experiments were performed to assay for site-specific binding of psoralen-AG10 to bp 167–176 in the supF gene within the SV40 vector itself. In these experiments, varying ratios of oligonucleotide to vector DNA were employed in order to examine basic parameters of the triplex binding to the viral genome. […] Binding of psoralen-AG10 as a triple strand to bp 167–176 of the supF gene within the SV40 vector was assayed by examining protection from Hinf I digestion at bp 164–168, as diagrammed in FIG. 4. The SV40 vector containing the supF target gene (50 nM) was incubated with psoralen-AG10 at ratios of oligomer to vector of from 1:1 to 1000:1, irradiated with 1.8 J/cm^2 of UVA, digested with Hinf I, and run on a 4.5% Nusieve gel. Because the sequences flanking the supF gene in the SV40 DNA differ from those in the PCR fragment, and since there are multiple Hinf I sites in SV40, the pattern of bands is more complex.

[5] = test system: supF gene contained within the chromosomes of the LN12 cells; experiment: Targeted mutagenesis in mouse fibroblast LN12 cells; type: cell-based
From the text: For the purposes of achieving targeted mutagenesis in mouse cells in vivo, the assay system to detect mutations in the chromosomes of mouse fibroblasts in culture developed by Glazer et al. was used (Proc. Natl. Acad. Sci. USA 83:1041–1044, (1986), which is incorporated by reference herein). This system allows detection and analysis of mutations occurring in the supF gene contained within the chromosomes of the LN12 cells, a derivative of mouse L cells into whose chromosomes multiple copies of the lambda supF shuttle vector were inserted.
The LN12 cells, growing in culture, were treated with the oligonucleotide, psoralen-AG10, which is designed to target mutations to base pair 167 in the supF gene via sequence-specific triplex formation and thereby delivery of the psoralen to that site. This oligonucleotide was used also in the lambda and the SV40 experiments. The oligonucleotide was added directly to the growth medium of the cells at various concentrations in the range of 0.1 to 50 μM. Two hours later, the cells were exposed to 0.07 J/cm^2 of UVA irradiation, the cells were allowed to grow for an additional 2 to 4 days, and then DNA was prepared from the cells to analyze for mutations in the supF gene. Using lambda in vitro packaging extracts to rescue the supF gene in the lambda vector from within the mouse DNA (as described by Glazer et al., cited above), mutations were detected in approximately 0.05% of the supF genes. Over forty mutant supF genes have been isolated in these recent experiments (from all concentrations of oligonucleotide studied), but the sequence of only one has been determined so far.

[6] = oligonucleotide 3 μM (1000-fold molar excess), UVA 1.8 J/cm^2

| Substance | supF mutations per 1000 phage [1, 6] | supF mutations per 1000 phage ([1]; oligonucleotide 3 μM, no UVA) | supF mutagenesis without UVA ([1]; no UVA) | Difference between supF and cI mutation frequency ([1]; plus UVA) | Specificity of targeted mutagenesis considering target size of cI (765 bp) and supF (184 bp) ([1]; plus UVA) | supF mutation frequency [1] | cI mutations per 1000 phage [2] | cI mutation frequency ([2]; plus UVA 1.8 J/cm^2) | Share of sequenced supF mutations that are the T:A to A:T transversion at targeted base pair 167 ([3]; 25 mutants) | Position of supF mutations relative to targeted base pair 167 [3] | Hinf I protection at the targeted site ([4]; oligomer to vector 1:1, UVA 1.8 J/cm^2) | Hinf I protection at the targeted site ([4]; oligomer to vector 2:1, UVA 1.8 J/cm^2) | Hinf I protection at the targeted site ([4]; oligomer to vector 10:1, UVA 1.8 J/cm^2) | Hinf I protection at the targeted site ([4]; oligomer to vector 100:1, UVA 1.8 J/cm^2) | Hinf I protection at the targeted site ([4]; oligomer to vector 1000:1, UVA 1.8 J/cm^2) | Share of supF genes with mutations ([5]; 0.1 to 50 μM in growth medium, 2 hours, UVA 0.07 J/cm^2, 2 to 4 days growth) | Relation of supF mutation frequency to oligonucleotide concentration ([5]; 0.1 to 50 μM, FIG. 6) | Sequence of the one supF mutant determined ([5]; LN12 cells) | Fold lower frequency of supF mutations than pso-AG10 ([1]; plus UVA) | Mutagenesis relative to background (untreated lambda DNA) ([1]; plus UVA) |
| --- | --- | --- | --- | --- | --- | --- | --- | --- | --- | --- | --- | --- | --- | --- | --- | --- | --- | --- | --- | --- |
| 4′-hydroxymethyl-4,5′,8-trimethylpsoralen-^5′AGGAAGGGGG^3′ (DNA NAGGAAGGGGG; 4'-hydroxymethyl-4,5',8-trimethylpsoralen conjugated at 5' end, further chemistry not given here) [pso-AG10] | 2.33 (263/112.872) per 1000 phage | <0.014 (0/69.000) per 1000 phage | No significant mutagenesis | approximately 100 fold | ≤ 500 fold | 0.233% | 0.024 (28/1,162,000) per 1000 phage | 0.0024% | 56% | All except one of the 25 mutations produced by pso-AG10 is at or near the targeted T:A base pair at position 167; also recorded: almost all were targeted by the triplex-forming oligonucleotide | only partial protection | only partial protection | almost complete | near complete protection | near complete protection | approximately 0.05% | dose-response relationship | T:A to A:T transversion exactly at the targeted base pair | – | – |
| pso-^5′GGGGGAAGGA^3′ (DNA NGGGGGAAGGA; psoralen conjugated at 5' end, further chemistry not given here) [pso-GA10, reference compound] | 0.004 (2/504.198) per 1000 phage | – | – | 5 fold | – | 0.0004% | 0.019 (9/483,475) per 1000 phage | – | – | Neither of the two mutations induced by the reverse oligomer, pso-GA10, were found to occur at base pair 167 | – | – | – | – | – | – | – | – | 582 fold | barely above background |

Reference: patent publication US7078389B2, “Chemically modified oligonucleotide for site-directed mutagenesis” (priority 1993, dated 2006)
